Test results published in PMC7006505, “Chemical biology tools for probing transcytosis at the blood–brain barrier” (Chemical Science, 2019).
Bridge positions count the residues as written; N and C are the ends. Square brackets hold non-standard residues; d marks the D form. Triazole bridges read from a SMILES are 1,4-linked. Ends that are not written are not given here. I, II: the chains in the order shown. * marks the point of attachment. 5FAM = O=C1OC2(c3ccc(O)cc3Oc3cc(O)ccc32)c2ccc(C(=O)*)cc21; Lys(N3) = [N-]=[N+]=NCCCC[C@H](N)C(=O)O; Pra = C#CC[C@H](N)C(=O)O

Tested on: bEnd.3/MSC co-culture
Experiment: Transcytosis assay, transwell in vitro BBB model with dex-TexR correction (cPapp)
Assay type: in vitro ADME, mouse
Settings: apical to basolateral; for fold increase in permeability (cPapp) relative to Tf-A647: bEnd.3/MSC co-culture on polyester transwell inserts (0.4 µm pore), 0.5 µM vehicle with 5 µM dex-TexR (3000 Da), DMEM without FCS after 1 h serum starvation, three inserts with and without culture, paracellular contribution subtracted; for fold increase in permeability (cPapp) relative to Tf-A647 / cPapp at 4 °C: fluorescence read-out; for cPapp at 4 °C: FAM-labelled vehicle co-incubated with dex-TexR, corrected for paracellular diffusion
Source text: To study transcytosis potential of the vehicles in vitro we optimised a BBB model using a 3D-transwell format. […] This is similar to results shown by others.[16] Immunostaining for TJ protein ZO-1 in the bEnd.3 cell line confirmed its presence and trafficking towards the cell junctions (Fig. S7 ^†).
It seemed plausible that a similar sized marker (such as TexasRed labelled dextran (dex-TexR; 3000 g mol^–1)) that is incapable of AMT or RMT uptake could serve as an internal standard to quantify paracellular contribution of the vehicles. As exemplified in Fig. 4A, experiments are performed in parallel with probes (both dex-TexR and FAM-PPII vehicle or Tf-A647) fed to insets containing either the cell monolayer (PSt) or filter alone (PSf). The corresponding Papp for dex-TexR in both scenarios is first calculated and the extent in which movement is reduced by presence of the monolayer (defined here as the transport ratio (TR)) is used to determine the expected paracellular diffusion rate of the individual vehicles. We employed Tf-A647 and a similarly sized TexasRed labelled dextran (dex-TexR; 70 000 g mol^–1) as a positive control for transcytosis. […] When incubated in the presence of cells, dex-TexR was detected in the basolateral compartment indicating background paracellular flux. However, Tf-A647 was cleared at a faster rate in comparison, confirming transcytosis of the molecule.
Fig. 4 Modified workflow and results for determining the cPapp of a macromolecule, accounting for contributions made by paracellular diffusion across an in vitro barrier. […] (B–C) Clearance plots obtained by incubation of Tf-A647 or dex-TexR with filters alone (B; PSf) or with cells (C; PSt). […] Division of PSt/PSf for dextran generates the transport ratio (TR). Expected paracellular contribution of the vehicle is obtained by multiplying TR by the Papp of the compound of interest without cells. cPapp values are obtained by subtracting this value from Papp of compound with cells. Key: red = dex-TexR; blue = Tf-A647; dashed lines = filter insert only; solid lines = transwell culture (D) cPapp values for delivery vehicles screened in the transcytosis assay.
(3 × 1 mL), and trypsinisation was conducted using a solution of 0.25 % (w/v) trypsin-EDTA solution (0.5 mL, 3 min, 37 °C, 5 % CO2 incubation), unless otherwise specified. When required, a Scan Speed 1580R centrifuge (Labmode) was used to pellet cell suspensions. All tissue culture work was performed in sterilised Corning well plates, and cell based assays used DMEM media (ThermoFisher, #31053028) without FCS and phenol red, unless otherwise specified. bEND.3 cells were a gift from Rachael Brown (Kings College London), while MSC cells were a gift from the Battaglia group (University College London).
Cells were maintained in high glucose Dulbecco’s Modified Eagle’s Medium (DMEM) (ATCC #30-2002) supplemented with 10 % FCS. Cells were sub-cultured routinely using trypsin solution once 100 % confluence was achieved. For uptake and transcytosis studies, cells under passage number 30 were used. After this time, these cells may begin to lose their barr ier functionality, as identified from an extensive study performed by Brown et al.1 Mesenchymal stem cells (MSC)
MSC, as surrogates for pericytes, were maintained in DMEM/F12 medium containing GlutaMAX and L-glutamine (2 mM) (ThermoFisher, #10565-018), supplemented with 10 % FCS and 5 μg/mL Gentamicin (SIGMA, G1397). Cultures were sub -cultured routinely using trypsin solution once 70 -80 % confluence was achieved.
For all transcytosis assays, polyester filter inserts (Corning, #3460; 0.4 µm pore, 12 mm diameter, 10 µm thick) were used in 12-well cell culture plates. Optimum media volumes were calculated to be 950 µL and 475 µL for apical and basolateral chambers respectively. Both chambers were coated with rat tail collagen (5 µg/cm2) for 2 h at room temperature prior to use. bEND.3 cells were seeded at a density of 2 × 10^4 cells/well onto insets, and grown to […]

## CC[C@H](C)[C@H](NC(=O)[C@H](C)NC(=O)[C@@H](N)Cc1c[nH]cn1)C(=O)N[C@@H](Cc1ccc(O)cc1)C(=O)N1CCC[C@H]1C(=O)N[C@@H](CCCNC(=N)N)C(=O)N[C@@H](Cc1c[nH]cn1)C(=O)NCCCC[C@H](NC(=O)[C@H](CCCNC(=N)N)NC(=O)[C@@H](NC(=O)[C@@H]1CCCN1C(=O)[C@@H]1CCCN1C(=O)[C@@H]1CCCN1C(=O)[C@H](CC(C)C)NC(=O)[C@H](CCCNC(=N)N)NC(=O)[C@@H](NC(=O)[C@@H]1CCCN1C(=O)[C@@H]1CCCN1C(=O)[C@@H]1CCCN1C(=O)[C@H](Cc1cn(CCCC[C@H](N)C(=O)N[C@H](C(=O)N[C@@H](Cc2ccccc2)C(=O)N[C@@H](Cc2ccccc2)C(=O)N[C@@H](Cc2ccc(O)cc2)C(=O)NCC(=O)NCC(=O)N[C@@H](CO)C(=O)N[C@@H](CCCNC(=N)N)C(=O)NCC(=O)N[C@@H](CCCCN)C(=O)N[C@@H](CCCNC(=N)N)C(=O)N[C@@H](CC(N)=O)C(=O)N[C@@H](CC(N)=O)C(=O)N[C@@H](Cc2ccccc2)C(=O)N[C@@H](CCCCN)C(=O)N[C@H](C(=O)N[C@@H](CCC(=O)O)C(=O)N[C@@H](CCC(=O)O)C(=O)N[C@@H](Cc2ccc(O)cc2)C(N)=O)[C@@H](C)O)[C@@H](C)O)nn1)NC(=O)[C@H](CCCNC(=N)N)NC(=O)[C@@H](NC(=O)c1ccc2c(c1)C(=O)OC21c2ccc(O)cc2Oc2cc(O)ccc21)C(C)C)C(C)C)C(C)C)C(=O)N1CCC[C@H]1C(=O)N1CCC[C@H]1C(=O)N1CCC[C@H]1C(N)=O [PPII(L3X;L15K)TfRL2(K);APep2(X)]
37 °C
  fold increase in permeability (cPapp) relative to Tf-A647: 1.8 fold

## CC(C)C[C@H](NC(=O)[C@H](CCCNC(=N)N)NC(=O)[C@@H](NC(=O)[C@@H]1CCCN1C(=O)[C@@H]1CCCN1C(=O)[C@@H]1CCCN1C(=O)[C@H](Cc1cn(CCCC[C@H](N)C(=O)N[C@H](C(=O)N[C@@H](Cc2ccccc2)C(=O)N[C@@H](Cc2ccccc2)C(=O)N[C@@H](Cc2ccc(O)cc2)C(=O)NCC(=O)NCC(=O)N[C@@H](CO)C(=O)N[C@@H](CCCNC(=N)N)C(=O)NCC(=O)N[C@@H](CCCCN)C(=O)N[C@@H](CCCNC(=N)N)C(=O)N[C@@H](CC(N)=O)C(=O)N[C@@H](CC(N)=O)C(=O)N[C@@H](Cc2ccccc2)C(=O)N[C@@H](CCCCN)C(=O)N[C@H](C(=O)N[C@@H](CCC(=O)O)C(=O)N[C@@H](CCC(=O)O)C(=O)N[C@@H](Cc2ccc(O)cc2)C(N)=O)[C@@H](C)O)[C@@H](C)O)nn1)NC(=O)[C@H](CCCNC(=N)N)NC(=O)[C@@H](NC(=O)c1ccc2c(c1)C(=O)OC21c2ccc(O)cc2Oc2cc(O)ccc21)C(C)C)C(C)C)C(=O)N1CCC[C@H]1C(=O)N1CCC[C@H]1C(=O)N1CCC[C@H]1C(=O)N[C@H](C(=O)N[C@@H](CCCNC(=N)N)C(=O)N[C@@H](Cc1cn(CCCC[C@H](N)C(=O)N[C@H](C(=O)N[C@@H](Cc2ccccc2)C(=O)N[C@@H](Cc2ccccc2)C(=O)N[C@@H](Cc2ccc(O)cc2)C(=O)NCC(=O)NCC(=O)N[C@@H](CO)C(=O)N[C@@H](CCCNC(=N)N)C(=O)NCC(=O)N[C@@H](CCCCN)C(=O)N[C@@H](CCCNC(=N)N)C(=O)N[C@@H](CC(N)=O)C(=O)N[C@@H](CC(N)=O)C(=O)N[C@@H](Cc2ccccc2)C(=O)N[C@@H](CCCCN)C(=O)N[C@H](C(=O)N[C@@H](CCC(=O)O)C(=O)N[C@@H](CCC(=O)O)C(=O)N[C@@H](Cc2ccc(O)cc2)C(N)=O)[C@@H](C)O)[C@@H](C)O)nn1)C(=O)N1CCC[C@H]1C(=O)N1CCC[C@H]1C(=O)N1CCC[C@H]1C(N)=O)C(C)C [PPII(L3X;L15X)APep2]
bEnd.3/MSC transwell, 0.5 µM vehicle, 37 °C, cPapp
  transcytosis / permeability in BBB model, in words: limited transcytosis

## CC(C)C[C@H](NC(=O)[C@H](CCCNC(=N)N)NC(=O)[C@@H](NC(=O)[C@@H]1CCCN1C(=O)[C@@H]1CCCN1C(=O)[C@@H]1CCCN1C(=O)[C@H](CC(C)C)NC(=O)[C@H](Cc1cn(CCCC[C@H](N)C(=O)N[C@H](C(=O)N[C@@H](Cc2ccccc2)C(=O)N[C@@H](Cc2ccccc2)C(=O)N[C@@H](Cc2ccc(O)cc2)C(=O)NCC(=O)NCC(=O)N[C@@H](CO)C(=O)N[C@@H](CCCNC(=N)N)C(=O)NCC(=O)N[C@@H](CCCCN)C(=O)N[C@@H](CCCNC(=N)N)C(=O)N[C@@H](CC(N)=O)C(=O)N[C@@H](CC(N)=O)C(=O)N[C@@H](Cc2ccccc2)C(=O)N[C@@H](CCCCN)C(=O)N[C@H](C(=O)N[C@@H](CCC(=O)O)C(=O)N[C@@H](CCC(=O)O)C(=O)N[C@@H](Cc2ccc(O)cc2)C(N)=O)[C@@H](C)O)[C@@H](C)O)nn1)NC(=O)[C@@H](NC(=O)[C@@H]1CCCN1C(=O)[C@@H]1CCCN1C(=O)[C@@H]1CCCN1C(=O)[C@H](CC(C)C)NC(=O)[C@H](CCCNC(=N)N)NC(=O)[C@@H](NC(=O)c1ccc2c(c1)C(=O)OC21c2ccc(O)cc2Oc2cc(O)ccc21)C(C)C)C(C)C)C(C)C)C(=O)N1CCC[C@H]1C(=O)N1CCC[C@H]1C(=O)N1CCC[C@H]1C(N)=O [PPII(R8X)APep2]
37 °C
  fold increase in permeability (cPapp) relative to Tf-A647: 4.9 fold
bEnd.3/MSC transwell
  cPapp at 4 °C: -0.058 cm/min x 10^-5

## CC[C@H](C)[C@H](NC(=O)[C@H](C)NC(=O)[C@H](Cc1c[nH]cn1)NC(=O)[C@@H](N)CCCCn1cc(C[C@H](NC(=O)[C@@H](NC(=O)[C@@H]2CCCN2C(=O)[C@@H]2CCCN2C(=O)[C@@H]2CCCN2C(=O)[C@H](CC(C)C)NC(=O)[C@H](CCCNC(=N)N)NC(=O)[C@@H](NC(=O)c2ccc3c(c2)C(=O)OC32c3ccc(O)cc3Oc3cc(O)ccc32)C(C)C)C(C)C)C(=O)N[C@@H](CC(C)C)C(=O)N2CCC[C@H]2C(=O)N2CCC[C@H]2C(=O)N2CCC[C@H]2C(=O)N[C@H](C(=O)N[C@@H](CCCNC(=N)N)C(=O)N[C@@H](CC(C)C)C(=O)N2CCC[C@H]2C(=O)N2CCC[C@H]2C(=O)N2CCC[C@H]2C(N)=O)C(C)C)nn1)C(=O)N[C@@H](Cc1ccc(O)cc1)C(=O)N1CCC[C@H]1C(=O)N[C@@H](CCCNC(=N)N)C(=O)N[C@@H](Cc1c[nH]cn1)C(N)=O [PPII(R8X)TfRL2]
37 °C
  fold increase in permeability (cPapp) relative to Tf-A647: 1.4 fold
bEnd.3/MSC transwell
  cPapp at 4 °C: -0.085 cm/min x 10^-5

## I: 5FAM-VR[Pra]PPPVRLPPPVR[Pra]PPP-NH2 / II: [Lys(N3)]THRPPMWSPVWP-NH2 / III: [Lys(N3)]THRPPMWSPVWP-NH2 (triazole I:3-III:1, I:15-II:1) [PPII(L3X;L15X)TfRL1]
37 °C
  fold increase in permeability (cPapp) relative to Tf-A647: 3.0 fold
bEnd.3/MSC transwell
  cPapp at 4 °C: -0.079 cm/min x 10^-5

## I: 5FAM-VR[Pra]PPPVRLPPP[Pra]RLPPP-NH2 / II: [Lys(N3)]THRPPMWSPVWP-NH2 / III: [Lys(N3)]THRPPMWSPVWP-NH2 (triazole I:3-III:1, I:13-II:1) [PPII(L3X;V13X)TfRL1]
37 °C
  fold increase in permeability (cPapp) relative to Tf-A647: 3.5 fold

## Tf-A647: human derived AlexaFluor 647-conjugated transferrin [reference compound]
bEnd.3/MSC transwell
  cPapp at 4 °C: 0.09 cm/min x 10^-5
